Measured values from patent US20130183257A1, “COMPOSITIONS AND METHODS FOR IMPROVING SKIN APPEARANCE” (SYTHEON LTD., priority 2009, published 2013).
Marks after values point to notes of the source that are not given here.

Assay: Solubility study of solid ingredients in DOI and co-solvent
Type: physicochemical
Method: Noting the surprising ease with which the various phases incorporating the DOI were prepared, a study was conducted to evaluate whether the DOI was acting as or solvent for or aiding in the solubility of certain of the solid ingredients with which it was combined. In this particular evaluation, the solubility of two solid sunscreen actives, butyl methoxydibenzoylmethane (avobenzone) and benzophenone-3 (“BP3”), and another solid cosmetic active, hexylresorcinol (“HR”) were evaluated in DOI. Additionally, the solubility of avobenzone was further evaluated in C12-C15 alkylbenzoate (“AB”) and in the combination of DOI and C12-C15 alkylbenzoate (70:30)—avobenzone being the sunscreen active and C12-C15 alkylbenzoate a co-solvent of the Sunscreen Formulation of Example 5C above. Each solution was prepared by warming 10 grams of the solvents to ˜45° C., adding the avobenzone and stirring the mixture for at least 20 min to make sure the all of the solid is solubilized. The solutions were then allowed to stand at room temp (˜25 C) and then visually examined for signs of crystal formation at 18 hours and 24 hours. Percent solubility was then calculated.

[1] = room temp (~25 C), visual examination

Solubility of Avobenzone in the solvent (dissolved at ~45° C., standing at room temp (~25 C)): 23%*
Avobenzone crystal formation, 18 hours [1]: yes
Avobenzone crystal formation, 24 hours [1]: yes
Substance: C12-C15 alkylbenzoate [AB]
